Reference: US9359346B2, “Benzamide derivative and use thereof” (VIVOZON, INC., priority 2011, dated 2016)
Where two headings read alike, the source gives them in different places.

Assays:
[1] = molecular target: 5HT2A (Homo sapiens, UniProt P28223); test: FLIPR calcium assay for 5HT2A target activity (transfected HEK293 cells); assay type: cell-based
[2] = molecular target: T1, GlyT2 (Rattus norvegicus, UniProt P58295); test: FLIPR membrane potential assay for GlyT2 target activity (T-rex-293-rGlyT2 cells); assay type: cell-based; details: read-out: GlyT2 % inhibition
T1 construct: expressed in transfected cells
T1 sequence (P58295 1-799): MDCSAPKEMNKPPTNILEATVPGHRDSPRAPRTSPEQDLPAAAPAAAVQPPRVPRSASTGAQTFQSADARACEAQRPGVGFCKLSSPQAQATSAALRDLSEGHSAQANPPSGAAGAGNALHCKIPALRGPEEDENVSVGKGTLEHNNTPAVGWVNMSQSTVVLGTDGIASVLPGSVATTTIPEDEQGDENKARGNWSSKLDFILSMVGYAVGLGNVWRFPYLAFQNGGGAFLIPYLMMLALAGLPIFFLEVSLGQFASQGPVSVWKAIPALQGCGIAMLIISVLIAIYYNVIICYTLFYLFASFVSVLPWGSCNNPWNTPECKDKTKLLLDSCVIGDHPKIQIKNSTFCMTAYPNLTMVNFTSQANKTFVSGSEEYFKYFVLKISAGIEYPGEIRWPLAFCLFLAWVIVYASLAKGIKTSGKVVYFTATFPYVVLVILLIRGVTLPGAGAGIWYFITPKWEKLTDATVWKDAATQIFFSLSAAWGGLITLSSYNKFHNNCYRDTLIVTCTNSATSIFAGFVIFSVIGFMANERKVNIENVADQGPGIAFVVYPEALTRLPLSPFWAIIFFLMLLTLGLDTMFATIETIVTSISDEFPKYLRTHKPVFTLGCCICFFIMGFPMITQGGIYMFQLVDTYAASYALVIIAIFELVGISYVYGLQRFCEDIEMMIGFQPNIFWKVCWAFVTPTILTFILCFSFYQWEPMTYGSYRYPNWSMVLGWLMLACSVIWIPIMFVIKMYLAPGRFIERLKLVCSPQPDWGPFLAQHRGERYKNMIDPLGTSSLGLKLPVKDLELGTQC
Protocol: GlyT2 (Glycine transporter type 2) is an electrogenic carrier associated with Na^+/Cl^− ion transportation, primarily distributed around the spinal cord part, and has an important role in the transfer of a pain signal in the spinal cord.
In order to identify the fact that the novel compound of the present invention has GlyT2 targeting activity, a membrane potential assay was performed. FLIPR Membrane Potential Assay is used to measure ion channel modulation caused by an increase or decrease in fluorescence signal due to variations of cellular membrane potential.
First, pcDNA4/TO vector encoding GlyT2 of the rat in HEK293 cell was transfected to prepare a stable recombinant cell line, i.e., T-rex-293-rGlyT2. A […] (Greiner #655090) coated with poly-D-lysine was prepared, and the above recombinant cells (T-rex-293-rGlyT2) were seeded at 3.2×10^4/well therein using a medium containing 15 μg/ml of tetracycline. After this, incubation was conducted at 37° C. for 48 hours under 5% CO2 conditions to express GlyT2. 10 ml of assay buffer (1×HBSS, 20 mM HEPES, pH 7.4) was added to a blue dye solution and sufficiently dissolved therein to prepare a membrane potential dye solution. After removing the medium from the well showing GlyT2 expression, the membrane potential dye solution was added to the well in an amount of 100 μl/well and incubated for 20 minutes.
According to the FLIPR Membrane Potential Assay kit's protocol, SoftMax Pro Software of FlexStation 3 software (Molecular Devices, US) was set up. An extent of GlyT2 expression was determined such that the extent of cellular membrane depolarization relative to an administered amount of glycine during glycine treatment is indicated in relative fluorescence units (RFU), and RFU (Max-Min) is calculated by subtracting the minimum value from the maximum value of RFU. After firstly treating 10 uM of the novel compound according to the present invention, glycine was treated and RFU (Max-Min) for glycine administration was determined. Then, with the determined result, the extent of depolarization inhibition (% inhibition) was assessed for each compound, compared to a positive control.
The positive control used herein was ORG25543 (500 nM) having strong inhibitory efficacy specific to GlyT2.
For GlyT2 inhibitory efficacy, the efficacy of the compound ORG25543 (500 nM) was defined as 100%. Similarly, for 5HT2A inhibitory efficacy, the efficacy of MDL11939 (100 nM) was defined as 100%. Therefore, the target inhibitory efficacy of each compound was indicated in a relative value compared to the above defined efficacy.

[3] = HEK293, read-out: 5HT2A % inhibition
[4] = HEK293, 10 uM compound, then serotonin, relative to MDL11939 (100 nM) defined as 100%, read-out: 5HT2A % inhibition
[5] = 10 uM compound, then glycine, relative to ORG25543 (500 nM) defined as 100%

Chain of 5HT2A (P28223 whole entry, species assumed): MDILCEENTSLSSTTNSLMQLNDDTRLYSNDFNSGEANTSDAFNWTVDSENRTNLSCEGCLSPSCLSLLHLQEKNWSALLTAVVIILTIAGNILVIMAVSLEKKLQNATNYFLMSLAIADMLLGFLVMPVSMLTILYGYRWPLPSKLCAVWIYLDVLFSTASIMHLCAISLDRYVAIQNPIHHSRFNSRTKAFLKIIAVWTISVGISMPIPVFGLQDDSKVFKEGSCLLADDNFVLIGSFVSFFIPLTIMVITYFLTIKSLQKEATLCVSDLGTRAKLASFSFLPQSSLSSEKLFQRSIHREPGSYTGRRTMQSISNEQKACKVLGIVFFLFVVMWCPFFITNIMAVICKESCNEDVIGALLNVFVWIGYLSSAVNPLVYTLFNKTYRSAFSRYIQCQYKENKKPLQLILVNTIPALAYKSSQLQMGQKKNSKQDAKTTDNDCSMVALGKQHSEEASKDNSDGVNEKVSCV

Row | Structure (SMILES) | inhibition at 10 µM [1, 3] [%] | inhibition at 10 µM [2] [%] | inhibition at 10 µM [1, 4] [%] | inhibition at 10 µM [2, 5] [%]
1 | CCCCOc1c(C)cc(C(=O)NCC(c2ccccc2)N(C)C)cc1C (centres unmarked) [VVZ-057] | 65.7 | 101 | – | –
2 | CCN1CCC[C@H]1CNC(=O)c1cc(OC)c(OCc2ccccc2)c(OC)c1 [VVZ-014] | – | – | 93.6 | 75
3 | COc1cc(C(=O)NCC2CCCCN2C)cc(OC)c1OCc1ccccc1 (centres unmarked) [VVZ-009] | – | – | 90.4 | 117
4 | CCCCOc1ccc(C(=O)NCC(c2ccccc2)N(C)C)cc1 (centres unmarked) [VVZ-052] | 103 | 76.6 | – | –
5 | CCN1CCC[C@@H]1CNC(=O)c1cc(OC)c(OCc2ccccc2)c(OC)c1 [VVZ-012] | – | – | 76.1 | 118
6 | COc1cc(C(=O)NCC2(N(C)C)CC=C(F)CC2)cc(OC)c1OCc1ccccc1 (centres unmarked) [VVZ-028] | 93.9 | – | – | 87.9
7 | O=C(NCC(c1ccccc1)N1CCOCC1)c1ccc(OCc2ccccc2)cc1 (centres unmarked) [VVZ-081] | 71.5 | 45.3 | – | –
8 | COc1cc(N)c(Cl)cc1C(=O)NCC1(O)CCN(C)CC1 [VVZ-055] | – | – | 146 | 55.3
9 | Cc1cc(C(=O)NC(CN2CCOCC2)c2ccccc2)cc(C)c1OCc1ccccc1 (centres unmarked) [VVZ-080] | – | – | 113 | 40.6
10 | COc1ccc(C(CNC(=O)c2cc(OC)c(OCc3ccccc3)c(OC)c2)N2CCCC2)cc1 (centres unmarked) [VVZ-015] | – | – | 57 | 108
11 | Cc1cc(C(=O)NCC(c2ccccc2)N(C)C)cc(C)c1OCc1ccccc1 (centres unmarked) [VVZ-046] | 54.2 | 113 | – | –
12 | Cc1cc(C(=O)NCC2(N3CCN(C)CC3)CCCCC2)cc(C)c1OCc1ccccc1 [VVZ-063] | 76.7 | 112 | – | –
13 | COc1cc(C(=O)NC2CCN(Cc3ccccc3)C2)cc(OC)c1OCc1ccccc1 (centres unmarked) [VVZ-013] | – | – | 48.5 | 72.9
14 | COc1cc(C(=O)NCC(c2ccccc2)N2CCOCC2)cc(OC)c1OCc1ccccc1 (centres unmarked) [VVZ-018] | 70.7 | 76.8 | – | –
15 | O=C(NCC1(N2CCOCC2)CCOCC1)c1ccc(OCc2ccccc2)cc1 [VVZ-076] | 113 | 50.6 | – | –
16 | COc1cc(C(=O)NCC2(N3CCOCC3)CCOCC2)cc(OC)c1OCc1ccccc1 [VVZ-074] | 155 | 73.5 | – | –
17 | CN1CCN(C2(CNC(=O)c3ccc(OCc4ccccc4)cc3)CCOCC2)CC1 [VVZ-072] | 101 | 59.1 | – | –
18 | Cc1cc(C(=O)NCC2(N(C)C)CCC(F)(F)CC2)cc(C)c1OCc1ccccc1 [VVZ-058] | 134 | 102 | – | –
19 | COc1cc(C(=O)N[C@H]2CN3CCC2CC3)cc(OC)c1OCc1ccccc1 [VVZ-003] | – | – | 31.6 | 78.2
20 | CCCCOc1c(OC)cc(C(=O)NC[C@H]2CCCN2CC)cc1OC [VVZ-029] | – | – | 71.3 | 46
21 | COc1cc(C(=O)NCC(c2ccccc2)N2CCCC2)cc(OC)c1OCc1ccccc1 (centres unmarked) [VVZ-035] | – | – | 101 | 84.8
22 | CCCCOc1c(C)cc(C(=O)NCC2(O)CCN(C)CC2)cc1C [VVZ-053] | – | – | 31.4 | 59.6
